# How the values were obtained:
# zinc insulin crystals = target: T1, zinc insulin crystals (Sus scrofa, UniProt P01315); test: dissolution times of zinc insulin crystals exposed to test solutions (microscope slide assay); type: physicochemical, pork
# T1 construct: measures the dissolution times of zinc insulin crystals
# Method: (§1) The test involved transferring pork insulin crystals to a clean microscope slide using the tip of a 25 G needle so that 10 to 30 crystals were distributed in the field of view. A 25 μl aliquot of the test solution was pipetted to form a small droplet which covered the crystals. […] The pH's of the test solutions were measured and the former were adjusted where appropiate to pH 7.5 using 1 N NaOH or 1 N HCl.
# glucagon = glucagon (Homo sapiens, UniProt P01275); test: dissolution of glucagon crystals in test solutions (tested as for insulin); type: physicochemical; conditions: 150 mmol solution (pH 7.5) in distilled water
# Chain of glucagon (P01275 53-81 limits assumed, species assumed): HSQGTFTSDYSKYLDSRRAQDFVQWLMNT
# Method: as §1
# Neutral pork insulin = Neutral pork insulin (Sus scrofa, UniProt P01315); conditions: 2.5, 25, 250 and 2,500 mmolar; 5 U/ml neutral pork insulin, 0.1 g copper per 10 ml, shaken at 37° C., pH 7.5, triplicate
# Chain of Neutral pork insulin (P01315 25-54 limits assumed): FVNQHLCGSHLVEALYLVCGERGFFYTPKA
# Chain of Neutral pork insulin (P01315 88-108 limits assumed): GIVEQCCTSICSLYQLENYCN
# Method: Biostatic water was used as the diluent. Neutral pork insulin was added to each to give a final concentration of 5 U/ml. To each sterile 10 ml vial 0.1 g of copper was added. Control vials were prepared exactly as above but no bicarbonate was added. The vials were aggitated on an Eberback shaker at 37° C. The experiment was run in triplicate at pH 7.5.
# [1] = test solution 150 mmol/l, pH 7.5, 25 μl droplet on pork zinc insulin crystals
# T1 sequence (P01315 25-54 limits assumed): as the sequence (P01315 25-54 limits assumed) above
structure (smiles),measurement,setting,value
O=CO [Formic Acid],Dissolution Time ± SEM,zinc insulin crystals; [1],> 1200 s
CC(O)C(=O)O (stereo not shown) [Lactic Acid],Dissolution Time ± SEM,zinc insulin crystals; [1],> 1200 s
O=C([O-])O.[Na+] [Sodium Bicarbonate],Dissolution Time ± SEM,"zinc insulin crystals; test solution 25 mmol/l, pH 7.5",360 ± 20 s
same,Dissolution Time ± SEM,zinc insulin crystals; [1],50 ± 5 s
same,dissolution time of glucagon,glucagon,45 ± 12 s
same,time vials remained clear (no aggregation) to date,Neutral pork insulin,≥ 35 days
NC(N)=O [Urea],fraction of insulin crystals dissolved at 300 sec,"zinc insulin crystals; 25 mmol/l, at 300 sec",20%

# Reference: patent publication US4423039A, “Disaggregated solutions of polypeptides, their preparation and use” (The Hospital for Sick Children, priority 1980, dated 1983)
